Reference: patent publication US20080102039A1, “Betamethasone spray” (priority 2006, published 2008)

How the values were obtained:
[1] = cited from earlier work
[2] = Preparation of Formulation 1: dissolution of BMV in dimethyl isosorbide and visual check for precipitation; type: physicochemical; details: Formulation 1 preparation
Description: • 1) Into vessel 1 was added the dimethyl isosorbide to which was slowly sprinkled the BMV. This was left mixing until visually dissolved. • 2) To vessel 1 was added the propylene glycol with stirring until homogenous. • 3) In vessel 2 was added the required amount of water and polysorbate 80. This was stirred until dissolved and homogenous. • 4) The 3Na.citrate.2H2O, anhyd. citric acid, imidazolidinyl urea and SDS were then added to vessel 2 and stirred until completely dissolved. • 5) The contents of vessel 2 were then poured into vessel 1 and stirred until homogenous.
A 1.1 kg batch of the 0.12% w/w Betamethasone valerate foam formulation above was then made up for a 3-month accelerated stability study using the same method: (Table 2)

[3] = Microscope examination of drops for crystals (Leica DM LB, drop taken every 5 mins); type: physicochemical
Description: The DMI phase was made up for a total solution volume of 500 g so 0.600 g (actual weight) of betamethasone valerate was dissolved in 25.009 g of Arlasolve DMI. The rate of addition was 0.600 g added over 30 secs that is at a rate of 0.02 g/sec. The solution was then mixed at speed setting 1 on the Bibby magnetic stirrer. 1 drop of the solution was then taken every 5 mins. and examined under the Leica DM LB microscope with a 5× lens and L plan 10× eyepiece. A 100×1 mm^2 graticule was placed over the sample. The temperatures before and after addition of DMI were also recorded.
Whilst stirring the BMV/DMI solution at speed 1 on the Bibby magnetic stirrer, the propylene glycol (50.008 g) was poured in over approx. 12 secs, at a rate of 4.17 g/sec. 1 drop of the solution was then taken every 5 mins. and examined under a Leica DM LB microscope with a 5× lens and L plan 10× eyepiece. […] The temperatures before and after addition of propylene glycol were also recorded.
15.120 g of the active phase was added to 84.880 g of the aqueous phase over 10 secs (Total vol.=100.000 g), at a rate of 1.51 g/sec. […] The temperatures before and after addition of the active phase were also recorded. […]
84.882 g of the aqueous phase were added to 15.129 g of the active phase over 10 secs (Total vol.=100.011 g). […] The temperatures before and after addition of the aqueous phase were also recorded. […]

Which results are given for `CCCCC(=O)O[C@]1(C(=O)CO)[C@@H](C)C[C@H]2[C@@H]3CCC4=CC(=O)C=C[C@]4(C)[C@@]3(F)[C@@H](O)C[C@@]21C` [Betamethasone valerate]?
solubility in water [1]: practically insoluble; dissolution of BMV into dimethyl isosorbide [2]: successfully dissolved; time to fully dissolve into the dimethyl isosorbide ([3]; 0.600 g in 25.009 g Arlasolve DMI, stirrer speed 1): at least 30 minutes; effect of addition of propylene glycol on precipitating the betamethasone valerate ([3]; propylene glycol 50.008 g poured into BMV/DMI solution): no effect
